# Measurements from patent US20260070924A1, “INDAZOLE MACROCYCLES AND THEIR USE” (BLOSSOMHILL THERAPEUTICS, INC., priority 2022, published 2026).
# Assays:
# Test in all cases: Cell proliferation panel (CellTiter-Glo 2.0, 5 days)
# Assay type in all cases: cell-based
# 22RV1 = settings: Prostate carcinoma
# Protocol: (§1) Cell proliferation assay was carried out in a panel of 108 cell lines. 1000 (attached cells) or 3000 (suspension cells) cells/100 μl per well were seeded in 96 well black plate with a clear bottom (Corning #3904). Compounds were added using Tecan D300e Digital Dispenser in 1:3 titration for 9 doses. Plates were incubated for 5 days at 37° C. and 5% CO2. Cell proliferation was measured using CellTiter-Glo 2.0 luciferase-based ATP detection assay (Promega, Madison, WI) at 50 μl per well following the manufacturer's protocol. Plates were then read on a TECAN Sparks multimode microplate reader. Data was analyzed using GraphPad Prism 9 (GraphPad Software, San Diego, CA) to obtain IC50 values. IC50 values were determined using Prism software (GraphPad Software, San Diego, CA).
# A-498 = settings: Kidney carcinoma
# Protocol: as §1
# AGS = settings: Gastric adenocarcinoma
# Protocol: as §1
# CAPAN2 = settings: Pancreatic adenocarcinoma
# Protocol: as §1
# CHP-212 = settings: Neuroblastoma
# Protocol: as §1
# COR-L23 = settings: Large cell lung carcinoma
# Protocol: as §1
# Caki-2 = settings: Kidney clear cell carcinoma
# Protocol: as §1
# DLD1 = settings: Colorectal adenocarcinoma
# Protocol: as §1
# GP2D = settings: Colon adenocarcinoma
# Protocol: as §1
# H1573 = settings: Lung adenocarcinoma NSCLC
# Protocol: as §1
# H2228 = settings: Lung adenocarcinoma, NSCLC
# Protocol: as §1
# H23 = settings: Lung adenocarcinoma NSCLC
# Protocol: as §1
# H2444 = settings: Lung adenocarcinoma NSCLC
# Protocol: as §1
# H441 = settings: Lung adenocarcinoma NSCLC
# Protocol: as §1
# H446 = settings: Small cell lung carcinoma
# Protocol: as §1
# HCC1419 = system: HCC1419
# Protocol: as §1
# HCC38 = settings: Mammary gland ductal carcinoma
# Protocol: as §1
# HCC78 = settings: Non-small cell lung carcinoma
# Protocol: as §1
# HCT116 = settings: Colorectal adenocarcinoma
# Protocol: as §1
# HPAC = settings: Pancreatic carcinoma
# Protocol: as §1
# Hs746T = settings: Gastric carcinoma
# Protocol: as §1
# IMR-32 = settings: Neuroblastoma
# Protocol: as §1
# JeKo-1 = settings: Mantle cell lymphoma
# Protocol: as §1
# KASUMI-4 = settings: Chronic Myeloblastic Leukemia
# Protocol: as §1
# KCL22S = settings: Chronic myeloid leukemia at blast crisis
# Protocol: as §1
# KG-1 = settings: Acute myelogenous leukemia
# Protocol: as §1
# KP-N-RT-BM-1 = settings: Neuroblastoma
# Protocol: as §1
# MCF7 = settings: Breast adenocarcinoma
# Protocol: as §1
# MIAPaCa-2 = settings: Pancreatic carcinoma
# Protocol: as §1
# MOLM13 = settings: Acute myeloid leukemia
# Protocol: as §1
# MOLM14 = settings: Acute myeloid leukemia
# Protocol: as §1
# N87 = settings: Gastric carcinoma
# Protocol: as §1
# NB-1 = settings: Neuroblastoma
# Protocol: as §1
# PANC1 = settings: Pancreatic ductal epithelioid carcinoma
# Protocol: as §1
# PC-9 = settings: Lung adenocarcinoma NSCLC
# Protocol: as §1
# SK-LU-1 = settings: Lung adenocarcinoma NSCLC
# Protocol: as §1
# SK-N-AS = settings: Neuroblastoma
# Protocol: as §1
# SK-N-SH = settings: Neuroblastoma
# Protocol: as §1
# SKOV3 = settings: Ovarian adenocarcinoma
# Protocol: as §1
# SNU-16 = settings: Gastric carcinoma
# Protocol: as §1
# SU-DHL-6 = settings: Diffuse Large B Cell Lymphoma
# Protocol: as §1
# SUIT-2 = settings: Pancreatic tubular adenocarcinoma
# Protocol: as §1
# SW1990 = settings: Pancreatic adenocarcinoma
# Protocol: as §1
# TF-1 = settings: Erythroleukemia
# Protocol: as §1
# THP-1 = settings: Acute monocytic leukemia
# Protocol: as §1
# U118-MG = settings: Brain glioblastoma
# Protocol: as §1
smiles,measurement,setting,value
"CCc1nn(C)c2c1/C=C/c1n[nH]c3ccc(cc13)-c1cnn(C)c1OCCN(C)C2=O [Ex. 6, (17E)-16-ethyl-8,12,14-trimethyl-2,11,12,14-tetrahydro-8H-3,5-ethenotripyrazolo[3,4-f:3′,4′-j:4″,3″-n][1,4]oxazacyclopentadecin-13(10H)-one]",IC50,22RV1,73.2 nM
same,IC50,A-498,169 nM
same,IC50,AGS,87.9 nM
same,IC50,CAPAN2,365 nM
same,IC50,CHP-212,27.4 nM
same,IC50,COR-L23,98.4 nM
same,IC50,Caki-2,142 nM
same,IC50,DLD1,48.7 nM
same,IC50,GP2D,121 nM
same,IC50,H1573,80.6 nM
same,IC50,H2228,118 nM
same,IC50,H23,88.8 nM
same,IC50,H2444,117 nM
same,IC50,H441,91.1 nM
same,IC50,H446,112 nM
same,IC50,HCC1419,83.8 nM
same,IC50,HCC38,161 nM
same,IC50,HCC78,42.7 nM
same,IC50,HCT116,60.2 nM
same,IC50,HPAC,79.1 nM
same,IC50,Hs746T,183 nM
same,IC50,IMR-32,11.2 nM
same,IC50,JeKo-1,20.6 nM
same,IC50,KASUMI-4,11.2 nM
same,IC50,KCL22S,61.2 nM
same,IC50,KG-1,153 nM
same,IC50,KP-N-RT-BM-1,15.1 nM
same,IC50,MCF7,75.9 nM
same,IC50,MIAPaCa-2,53.2 nM
same,IC50,MOLM13,2.39 nM
same,IC50,MOLM14,2.26 nM
same,IC50,N87,20.8 nM
same,IC50,NB-1,45 nM
same,IC50,PANC1,213 nM
same,IC50,PC-9,164 nM
same,IC50,SK-LU-1,166 nM
same,IC50,SK-N-AS,77.2 nM
same,IC50,SK-N-SH,21.7 nM
same,IC50,SKOV3,117 nM
same,IC50,SNU-16,90.5 nM
same,IC50,SU-DHL-6,28.4 nM
same,IC50,SUIT-2,393 nM
same,IC50,SW1990,104 nM
same,IC50,TF-1,57.6 nM
same,IC50,THP-1,107 nM
same,IC50,U118-MG,310 nM
